# Measured values as given in patent US20230365592A1 (Agios Pharmaceuticals, Inc., priority 2022, published 2023).
# Target: T1, human PAH with the R408W mutation (Homo sapiens, UniProt P00439, R408W)
# T1 construct: expressed in transfected cells
# T1 sequence (P00439 1-452 R408W): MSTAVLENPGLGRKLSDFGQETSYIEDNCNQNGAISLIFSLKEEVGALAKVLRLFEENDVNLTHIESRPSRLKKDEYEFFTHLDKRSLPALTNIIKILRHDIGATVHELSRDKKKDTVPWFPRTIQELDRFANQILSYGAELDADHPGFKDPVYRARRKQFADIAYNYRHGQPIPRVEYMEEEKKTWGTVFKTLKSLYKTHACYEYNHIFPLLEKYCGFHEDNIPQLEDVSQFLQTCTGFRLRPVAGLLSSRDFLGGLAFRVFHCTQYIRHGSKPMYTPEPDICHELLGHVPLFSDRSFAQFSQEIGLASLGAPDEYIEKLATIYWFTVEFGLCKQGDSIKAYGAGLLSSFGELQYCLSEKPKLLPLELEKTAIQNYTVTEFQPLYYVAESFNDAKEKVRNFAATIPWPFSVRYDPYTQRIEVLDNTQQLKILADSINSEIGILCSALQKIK
# Assay: Cell Based Phenylalanine Flux Assay;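 note: after compound treatment, cells received sepiapterin plus isotope-labelled Phenylalanine for 4 hours, then labelled Tyrosine in the medium was quantified, 10-point 2-fold dilution series run in duplicate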
# Conditions: A375 cells expressing human R408W PAH; 24 hrs compound incubation; 13C-Tyrosine by LC-MS; average where tested multiple times; read-out: AC50
row,Structure (SMILES),AC50 [nM]
1,"Cc1cccc2cc([C@@H]3c4nc[nH]c4CCN3C(=O)c3nnc(C4CC4)o3)nn12 [Example 940, (S)-(5-cyclopropyl-1,3,4-oxadiazol-2-yl)(4-(7-methylpyrazolo[1,5-a]pyridin-2-yl)-6,7-dihydro-1H-imidazo[4,5-c]pyridin-5(4H)-yl)methanone]",500 to 1000
2,"Cc1cccc2cc([C@H]3c4nc[nH]c4CCN3C(=O)c3nnc(C4CC4)o3)nn12 [Example 941, (R)-(5-cyclopropyl-1,3,4-oxadiazol-2-yl)(4-(7-methylpyrazolo[1,5-a]pyridin-2-yl)-6,7-dihydro-1H-imidazo[4,5-c]pyridin-5(4H)-yl)methanone]",> 5000
3,"O=C(c1nnc(C2CC2)o1)N1CCc2[nH]cnc2[C@H]1c1cc2c(C(F)(F)F)cccn2n1 [Example 942, (S)-(5-cyclopropyl-1,3,4-oxadiazol-2-yl)(4-(4-(trifluoromethyl)pyrazolo[1,5-a]pyridin-2-yl)-6,7-dihydro-1H-imidazo[4,5-c]pyridin-5(4H)-yl)methanone]",< 500
4,"O=C(c1nnc(C2CC2)o1)N1CCc2[nH]cnc2[C@@H]1c1cc2c(C(F)(F)F)cccn2n1 [Example 943, (R)-(5-cyclopropyl-1,3,4-oxadiazol-2-yl)(4-(4-(trifluoromethyl)pyrazolo[1,5-a]pyridin-2-yl)-6,7-dihydro-1H-imidazo[4,5-c]pyridin-5(4H)-yl)methanone]",> 5000
5,"Cc1nnc(C(=O)N2CCc3[nH]cnc3[C@H]2c2cc3c(C(F)(F)F)cccn3n2)o1 [Example 944, (S)-(5-methyl-1,3,4-oxadiazol-2-yl)(4-(4-(trifluoromethyl)pyrazolo[1,5-a]pyridin-2-yl)-6,7-dihydro-1H-imidazo[4,5-c]pyridin-5(4H)-yl)methanone]",500 to 1000

# Other lines, results leading:
row,AC50 [nM],Structure (SMILES)
1,> 5000,"Cc1nnc(C(=O)N2CCc3[nH]cnc3[C@@H]2c2cc3c(C(F)(F)F)cccn3n2)o1 [Example 945, (R)-(5-methyl-1,3,4-oxadiazol-2-yl)(4-(4-(trifluoromethyl)pyrazolo[1,5-a]pyridin-2-yl)-6,7-dihydro-1H-imidazo[4,5-c]pyridin-5(4H)-yl)methanone]"
2,< 500,"O=C(c1nnc(C2CC2)o1)N1CCc2[nH]cnc2[C@H]1c1cc2c(F)cccn2n1 [Example 946, (S)-(5-cyclopropyl-1,3,4-oxadiazol-2-yl)(4-(4-fluoropyrazolo[1,5-a]pyridin-2-yl)-6,7-dihydro-1H-imidazo[4,5-c]pyridin-5(4H)-yl)methanone]"
3,> 5000,"O=C(c1nnc(C2CC2)o1)N1CCc2[nH]cnc2[C@@H]1c1cc2c(F)cccn2n1 [Example 947, (R)-(5-cyclopropyl-1,3,4-oxadiazol-2-yl)(4-(4-fluoropyrazolo[1,5-a]pyridin-2-yl)-6,7-dihydro-1H-imidazo[4,5-c]pyridin-5(4H)-yl)methanone]"
4,< 500,"CC(C)(C)c1nnc(C(=O)N2CCc3[nH]cnc3[C@H]2c2cc3c(C(F)(F)F)cccn3n2)o1 [Example 948, (S)-(5-(tert-butyl)-1,3,4-oxadiazol-2-yl)(4-(4-(trifluoromethyl)pyrazolo[1,5-a]pyridin-2-yl)-6,7-dihydro-1H-imidazo[4,5-c]pyridin-5(4H)-yl)methanone]"
5,1000 to 5000,"CC(C)(C)c1nnc(C(=O)N2CCc3[nH]cnc3[C@@H]2c2cc3c(C(F)(F)F)cccn3n2)o1 [Example 949, (R)-(5-(tert-butyl)-1,3,4-oxadiazol-2-yl)(4-(4-(trifluoromethyl)pyrazolo[1,5-a]pyridin-2-yl)-6,7-dihydro-1H-imidazo[4,5-c]pyridin-5(4H)-yl)methanone]"
6,< 500,"CC(C)(F)c1nnc(C(=O)N2CCc3[nH]cnc3[C@H]2c2cc3c(C(F)(F)F)cccn3n2)o1 [Example 950, (S)-(5-(2-fluoropropan-2-yl)-1,3,4-oxadiazol-2-yl)(4-(4-(trifluoromethyl)pyrazolo[1,5-a]pyridin-2-yl)-6,7-dihydro-1H-imidazo[4,5-c]pyridin-5(4H)-yl)methanone]"
